How the values were obtained:
MCF7 = assay: MTT in vitro tumor cell inhibition; format: cell-based; settings: 3 days
Text: (§1) An effective amount of the above compounds and/or the compositions containing the same used as an active ingredient have an effect on inhibiting the tumor cells. The present invention detects the inhibitory effect of the hydroxy-substituted benzophenone compounds on the proliferation of the in vitro cultured human tumor cells by the methylthiazolyl tetrazolium method.
(§2) The method is used to detect cell viability. […] Particles can be dissolved by dimethyl sulfoxide (DMSO) isopropyl alcohol or 10% acidified SDS (sodium dodecyl sulfate), and a microplate reader is used to measure the OD value at A570 wavelength, which indirectly reflects the number of live cells. The method is used for detection of the cytokines bioactivity, as well as anti-tumor drugs and tumor radiosensitivity and cytotoxicity test, and has the characteristics of being simple, fast, economical, sensitive and accurate and having good reproducibility and no need to use radionuclides. This method has been widely used in screening preclinical anticancer drugs and detecting the drug sensitivity of fresh tumor cells. The method is as below:
(§3) (1) The tumor cell suspension prepared by 0.25% of trypsin digestion and adjusted to a cell concentration of 10^5/ml with RPMI1640 containing 10% fetal calf serum is added to a 96-well plate with 100 μl for each well, cultured 24 hours, and then different dosages of drugs are added with 100 μl/well, for which, the negative control groups, positive control groups and withering wells are set, and 4 parallel wells are set for each group.
(§4) (2) They are continually cultured in incubator containing 5% of CO2 at 37° C. for 24 to 48 hours. MTT solution (5 g/L) is added to each well before the termination of the experiment. The OD value at A570 nm is detected by microplate reader. The OD value at A570 of the negative group without the addition of drugs is taken as a control. The cell survival rate and cell inhibition rate of drugs are calculated according to the following formula: Cell survival rate=(OD value of test group/OD value of control group)×100% Cell inhibition rate (%)=(OD value of the control group−OD value of the test group/(OD value of the control group−OD value of the blank group)
(§5) The tumor cell lines are cultured in RPMI-1640 medium containing 15% of the newborn bovine serum in a conventional manner, placed in the humidification incubator containing 5% of CO2 for being cultured at 37° C., and are observed for growth by an inverted microscope. A subculture is conducted every about 3-5 days, the cells in logarithmic growth phase are adopted to be digested with 0.25% of trypsin, and the serum-free RPMI-1640 medium is used for culturing the cell suspension; the blood counting plate makes counting, the trypan blue exclusion tests the cell activity, and the cell viability>95% is used for formal tests.
Liquid preparation: the compounds are labeled with the codes respectively, DMSO is used to dissolve each compound, the bacterial filter is used to remove bacteria, and each compound is prepared into 10^−4 g/ml, 10^−5 g/ml, 10^−6 g/ml and preserved at 4° C. for use.
MTT method: a bottle of 4-5 days old cells in the exponential growth phase are adopted to be cultured, and added with an appropriate amount of Trypsin-EDTA solution, so as to enable the adherent cells to fall off, and are prepared with 10 ml of RPMI-1640 medium containing 15% newborn bovine serum into suspensions; after stained with trypan blue, the cell number is counted on the blood counting plate to ensure that the live cells is more than 97%; the cell suspensions are diluted by the complete medium so that each […] of solution contains 5000-400000 cells; the 96-well plate is used with 200 μl of cell suspensions added into each. The 96-well plate is placed at 37° C. in 5% of CO2 containing incubator for 24 hours; the test compounds are diluted at 3 dilutions with 5 wells in parallel for each concentration; the serum-free RPMI1640 is used as the control group. […]

HPV 6/11 Virus = assay: HPV detection via fluorescence quantitative PCR in genital warts tissue homogenate; parameters: species or system human papillomavirus; settings: for HPV 6/11 virus detection, in words: 24 hours after addition into the tissue homogenate of genital warts; for HPV 6/11 Virus: genital warts tissue homogenate, 37° C., 24 hours, FQ-PCR
Text: (§6) The aforesaid compounds and/or compositions containing the same are effective in killing and inhibiting HPV type 6/11 and type 16/18, which can be used for the preparation of drugs for preventing and treating viral infection of HPV, preventing and treating genital warts, flat warts, common warts, vaginitis, cervicitis and cervical erosion, cervical cancer, esophageal cancer and other cancers caused by HPV. The present invention observes the effect of active ingredients and products by the detection of the change in the amount of the HPV virus through the real-time quantitative PCR. Such method has been applied in several publications (Youling C A I, et al., Chinese STD/AIDS, 2002, 8: 2,108; Yuansheng W U, Ruijiang F A N, et al., Practical Application of Integrated Chinese and Western Medicine in Clinics, 2003, 3: 2,1).
(§7) The microemulsion obtained in example 1 is used as a test sample and saline for blank control.
(§8) The standard clinical genital warts specimens from a variety of patients after being cut off are washed with saline for removing bloods, and are cut into pieces under aseptic conditions, added with saline in 3 times of their volumes to be uniformly mixed, grinded into homogenate and placed at −40° C. for use.
(§9) Each test sample drug microemulsion and the saline of 50 μl for each are respectively added with 50 μl the genital warts tissue homogenate, and incubated at 37° C. for 24 hours; tests are performed according to the operation procedure provided by the HPV6, 11 and 16, 18 type FQ-PCR diagnostic kits provided by Da'an Gene Diagnostic Center. 0.2 ml of DNA extracted by the conventional alkaline lysis method is put into the thin-walled reaction tube, and simultaneously added with primers, F-PROBE, DNTP, DNA polymerase, buffers and the like in a certain concentration; ABI PRISM™ 7700 fluorescence quantitative PCR amplifier is used to repeat 40 circulations each with 45 s at 93° C. and 120 s at 55° C. after predegeneration at 93° C. for 2 mins; the quantitative results are automatically analyzed by the computer software to calculate the quantitative results of the initial copy number. The data are shown in Table 2 (completed by Da'an Gene Clinical Test Center).

HPV16/18 = assay: as above; parameters: species or system human papillomavirus; settings: for HPV16/18 virus detection, in words: 24 hours after addition into the tissue homogenate of genital warts; for HPV16/18: genital warts tissue homogenate, 37° C., 24 hours, FQ-PCR
Text: as §6, §7, §8, §9

[1] = tested on: human colon cancer cell line (LOVO); assay: MTT in vitro tumor cell inhibition; format: cell-based; settings: 3 days
Text: as §1, §2, §3, §4
1. Tumor cell lines: human glioma cell line (U251), human colon cancer cell line (LOVO), human hepatoma cell line (HepG2), human lung cancer cell line (PC84045), human endometrial carcinoma cell line (JEC), human renal carcinoma (GRC), human gastric cancer cell line (MCG804), human cervical cancer cell line (HeLa), human hepatocellular carcinoma cell line (BEL-7402) and human umbilical vein endothelial cell line (ECV304) purchased from Animal Experimental Center of Zhongshan Medical College, and preserved by the present laboratory.
as §5
Liquid preparation: the compounds are labeled with the codes respectively, DMSO is used to dissolve each compound, the bacterial filter is used to remove bacteria, and each compound is prepared into 10^−4 g/ml, 10^−5 g/ml, 10^−6 g/ml and preserved at 4° C. for use. […]

Compound | Inhibitory rate % (MCF7; MCF7, 10^−4 g/ml) [%] | Inhibitory rate % (MCF7; MCF7, 10^−5 g/ml) [%] | Inhibitory rate, sensitivity class (MCF7; MCF7, 10^−6 g/ml) | HPV 6/11 virus detection, in words (HPV 6/11 Virus) | HPV 6/11 Virus (HPV 6/11 Virus) [copy/ml] | HPV16/18 virus detection, in words (HPV16/18) | HPV16/18 (HPV16/18) [copy/ml] | Inhibitory rate % ([1]; 10^−4 g/ml) [%] | Inhibitory rate, sensitivity class ([1]; 10^−5 g/ml) | Inhibitory rate, sensitivity class ([1]; 10^−6 g/ml) | Inhibitory rate, sensitivity class ([1]; 10^−4 g/ml) | Inhibitory rate % ([1]; 10^−5 g/ml) [%] | Inhibitory rate, sensitivity class (MCF7; MCF7, 10^−5 g/ml)
O=C(c1cc(O)c(O)cc1O)c1ccc(O)c(O)c1O | 73.19 | 35.48 | insensitive (<30% means insensitive) | can no longer be detected | 0 | can no longer be detected | 0 | 51.19 | insensitive (<30% means insensitive) | insensitive (<30% means insensitive) |  |  | 
O=C(c1ccc(O)c(O)c1O)c1ccc(O)c(O)c1O [2,3,4,2′,3′,4′-hexahydroxybenzophenone] | 76.37 | 43.52 | insensitive (<30% means insensitive) | can no longer be detected | 0 | can no longer be detected | 0 |  | insensitive (<30% means insensitive) | insensitive (<30% means insensitive) | insensitive (<30% means insensitive) |  | 
O=C(c1ccccc1)c1ccc(O)c(O)c1O [2,3,4-trihydroxybenzophenone] | 78.59 | 38.60 | insensitive (<30% means insensitive) | can no longer be detected | 0 | can no longer be detected | 0 | 90.02 |  | insensitive (<30% means insensitive) |  | 46.78 | 
O=C(c1ccc(O)cc1O)c1ccc(O)cc1O [2,4,2′,4′-tetrahydroxybenzophenone] | 45.73 |  | insensitive (<30% means insensitive) | can no longer be detected | 0 | can no longer be detected | 0 | 53.29 | insensitive (<30% means insensitive) | insensitive (<30% means insensitive) |  |  | insensitive (<30% means insensitive)

From patent US10716769B2 (GUANGZHOU JTREAT BIOSCI. LTD., priority 2015, dated 2020)
